Results: patent US20240059685A1, “PIEZO1 AGONISTS FOR THE PROMOTION OF BONE FORMATION” (BIOVENTURES, LLC, priority 2019, published 2024)
“Also recorded” adds a separate entry of the source.

Key:
Assay type in all cases: cell-based, murine
[1] = target: T1, Piezo1 (Mus musculus, UniProt E2JF22); assay: qPCR gene expression of Wnt1, Ptgs2 and Tnfrsf11b in MLO-Y4 cells; settings: 10 μM, 2 hours
T1 construct: To identify Piezo1 stimulators, we treated MLO-Y4 cells with compounds; endogenous in cells; host or cells: MLO-Y4 (murine osteocyte-like cell line); control sh-Luc cells, with sh-Piezo1 knock-down cells as the specificity control
Method: Cell cultures. MLO-Y4 cells were cultured in α-MEM supplemented with 5% FBS, 5% BCS, and 1% penicillin/streptomycin/glutamine. Fifteen dynes/cm^2 oscillatory fluid shear stress was applied on MLO-Y4 cells at 1 Hz for 2 hours using an IBDI pump system (IBIDI, German). For Yoda1 treatment, cells were cultured in the presence of 10 μM Yoda1 (Sigma, St. Louis, MO) or DMSO for 2 hours. Immediately after the treatments, we isolated RNA from cells using RNeasy mini kit (Qiagen, German) for qPCR or RNA-seq analysis. To silence Piezo1, we generated Piezo1 shRNA expression plasmid using the following oligonucleotides in the pLKO.1-TRC cloning vector (Addgene Plasmid #10878, a gift from David Root): forward oligo: 5′-CCGGTC-[…]-3′ (SEQ ID NO: 1); reverse oligo: 5′-[…]-CGA-3′ (SEQ ID NO: 2) (Zhang et al., 2017). Yap1 shRNA (TRCN0000238432) and Taz shRNA (TRCN0000095951) were purchased from Sigma (St. Louis, MO). A shRNA against firefly luciferase was used as a control (Sigma, St. Louis, MO). For virus production, HEK293T cells were cultured in a 6-well culture plate and co-transfected with a total 3 μg of lentiviral shRNA vector, pMD2G (Addgene plasmid #12259, a gift from Didier Trono), and psPAX2 (Addgene plasmid #12260, a gift from Didier Trono) at the ratio of 2:0.9:0.4 using TransIT-LT1 transfection reagent (Mirus, Madison, WI). Culture media was changed 12 hours after transfection and viral supernatants were collected 48 hours after media change. Viral supernatants were filtered through a 0.45 μm filter and used immediately to transduce cells cultured in a 10 cm dish. Cells were then subjected to selection with G418 (100 μg/ml) or puromycin (25 μg/ml) for 5 days before treatment. To overexpress Piezo1 in MLO-Y4 cells, we transfected mPiezo1-IRES-eGFP (Addgene plasmid #80925, a gift from Ardem Patapoutian) into MLO-Y4 cells using TransIT-LT1 transfection reagent (Mirus, Madison, WI) and then treated these cells with 15 dynes/cm^2 oscillatory fluid shear stress at 1 Hz for 2 hours. Plasmids for expression of Cas9 and sgRNAs for knocking out Piezo1 in UAMS-32 cells were prepared by inserting oligonucleotides encoding the desired sgRNA sequence into the pX458 vector using the protocol recommended by the Zhang laboratory (Cong et al., 2013). Plasmids expressing Cas9 and Piezo1 sgRNAs were transfected into UAMS-32 cells using TransIT-LT1 transfection reagent (Mirus, Madison, WI). Cells were sorted into 96-well plates for single cell cloning 48 hours after transfection. Single cell colonies were then screened for homozygous deletion using the following primers: Forward: 5′-[…]-3′ (SEQ ID NO: 5), Reverse: 5′-[…]-3′ (SEQ ID NO: 6). All homozygous mutant cell colonies were then pooled together for further analysis. Cas9 transfected cells were used as a control. All in vitro cell culture experiments were performed three times with three technical replicates.
Quantitative PCR. Organs and whole bones were harvested from animals, removed of soft tissues, and stored immediately in liquid nitrogen. We prepared osteocyte-enriched bone by removing the ends of femurs and tibias and then flushing the bone marrow with PBS. We then scraped the bone surface with a scalpel and froze them in liquid nitrogen for later RNA isolation, or decalcified them for genomic DNA isolation. We isolated total RNA using TRIzol (Life technologies, NY), according to the manufacturer's instructions and prepared cDNA using High Capacity first strand cDNA synthesis kit (Life Technologies). We performed quantitative RT-PCR using the following Taqman assays from Applied Biosystems: Piezo1 (Mm01241549_m1); Piezo2 (Mm01265861_m1); Ptgs2 (Mm00478374_m1); Cyr61 (Mm00487498_m1); Wnt1 (Mm01300-555_g1); Yap1 (Mm011432-63_m1); Taz (Mm01289583_m1); Tnfsf11 Mm00441906_m1; Tnfrsf11b (Mm00435452_m1); Sost (Mm00470479_m1); and ribosomal protein S2 (Mrps2) (Mm00475529_m1). We calculated relative mRNA amounts using the ΔCt method (Livak and Schmittgen, 2001). […]

[2] = target: T1, Piezo1; assay: Intracellular calcium concentration (Fluo-8) in control or Piezo1 knock-down MLO-Y4 cells; settings: for calcium influx / increase of intracellular calcium in Piezo1 knock-down cells: Piezo1 knock-down (sh-Piezo1) MLO-Y4 cells
Method: Calcium concentration measurement. For intracellular calcium concentration measurement under fluid flow condition, 1×10^5 MLO-Y4 cells were seeded in a μ-Slide I Luer (0.4 mm) fluid chamber slide (MIDI, Germany) overnight. One hour before initiating fluid flow, the culture medium was removed and 100 μl Hank's Buffer with Hepes (HHBS) containing 4μM Fluo-8 (Abcam, Cambridge, MA) was added to the culture, as described by the manufacturer. The cells were then cultured at 37° C. for 30 minutes. After additional incubation at room temperature for 30 minutes, the chamber slide was placed under a confocal microscope in order to record the intensity of fluorescence of MLO-Y4 cells. Fluorescence was recorded for 3 minutes before starting fluid flow using HHBS and then recorded for another 10 minutes. The increase of intracellular concentration was calculated by subtracting the initial mean fluorescence. For measuring intracellular calcium concentration in cells with Yoda1 treatment, we cultured 4,000 MLO-Y4 cells per well in a 96-well-plate. We preloaded the cells with Fluo-8 as described by the manufacturer and read the intensity of the fluorescence using a Victor X3 multi-label plate reader (Perkin Elmer, Waltham, MA) immediately after the treatment. We measured the fluorescence for 5 minutes at an interval of 20 seconds. The percentage of increase in intracellular calcium concentration was calculated as (Fx-F0)/F0.
To identify Piezo1 stimulators, we treated MLO-Y4 cells with compounds Yoda1, YW-3-159, W-3-163, W-3-168-1, W-3-168-2, W-3-170, W-3-173-1, W-3-173-2, and YW-3-174. Gene expression of Wnt1, Ptgs2, and Tnfrsf11b was measured to determine the activation of Piezo1. In addition, intracellular calcium concentration was measured to determine the activity of Piezo1 channel. […] Yoda1 was used as a positive control in all experiments.

[3] = test system: MLO-Y4 cells; assay: ATP production in MLO-Y4 cells; settings: 30 minutes, different doses
[4] = Yap1/Taz knock-down MLO-Y4 cells

T1 sequence (E2JF22 whole entry): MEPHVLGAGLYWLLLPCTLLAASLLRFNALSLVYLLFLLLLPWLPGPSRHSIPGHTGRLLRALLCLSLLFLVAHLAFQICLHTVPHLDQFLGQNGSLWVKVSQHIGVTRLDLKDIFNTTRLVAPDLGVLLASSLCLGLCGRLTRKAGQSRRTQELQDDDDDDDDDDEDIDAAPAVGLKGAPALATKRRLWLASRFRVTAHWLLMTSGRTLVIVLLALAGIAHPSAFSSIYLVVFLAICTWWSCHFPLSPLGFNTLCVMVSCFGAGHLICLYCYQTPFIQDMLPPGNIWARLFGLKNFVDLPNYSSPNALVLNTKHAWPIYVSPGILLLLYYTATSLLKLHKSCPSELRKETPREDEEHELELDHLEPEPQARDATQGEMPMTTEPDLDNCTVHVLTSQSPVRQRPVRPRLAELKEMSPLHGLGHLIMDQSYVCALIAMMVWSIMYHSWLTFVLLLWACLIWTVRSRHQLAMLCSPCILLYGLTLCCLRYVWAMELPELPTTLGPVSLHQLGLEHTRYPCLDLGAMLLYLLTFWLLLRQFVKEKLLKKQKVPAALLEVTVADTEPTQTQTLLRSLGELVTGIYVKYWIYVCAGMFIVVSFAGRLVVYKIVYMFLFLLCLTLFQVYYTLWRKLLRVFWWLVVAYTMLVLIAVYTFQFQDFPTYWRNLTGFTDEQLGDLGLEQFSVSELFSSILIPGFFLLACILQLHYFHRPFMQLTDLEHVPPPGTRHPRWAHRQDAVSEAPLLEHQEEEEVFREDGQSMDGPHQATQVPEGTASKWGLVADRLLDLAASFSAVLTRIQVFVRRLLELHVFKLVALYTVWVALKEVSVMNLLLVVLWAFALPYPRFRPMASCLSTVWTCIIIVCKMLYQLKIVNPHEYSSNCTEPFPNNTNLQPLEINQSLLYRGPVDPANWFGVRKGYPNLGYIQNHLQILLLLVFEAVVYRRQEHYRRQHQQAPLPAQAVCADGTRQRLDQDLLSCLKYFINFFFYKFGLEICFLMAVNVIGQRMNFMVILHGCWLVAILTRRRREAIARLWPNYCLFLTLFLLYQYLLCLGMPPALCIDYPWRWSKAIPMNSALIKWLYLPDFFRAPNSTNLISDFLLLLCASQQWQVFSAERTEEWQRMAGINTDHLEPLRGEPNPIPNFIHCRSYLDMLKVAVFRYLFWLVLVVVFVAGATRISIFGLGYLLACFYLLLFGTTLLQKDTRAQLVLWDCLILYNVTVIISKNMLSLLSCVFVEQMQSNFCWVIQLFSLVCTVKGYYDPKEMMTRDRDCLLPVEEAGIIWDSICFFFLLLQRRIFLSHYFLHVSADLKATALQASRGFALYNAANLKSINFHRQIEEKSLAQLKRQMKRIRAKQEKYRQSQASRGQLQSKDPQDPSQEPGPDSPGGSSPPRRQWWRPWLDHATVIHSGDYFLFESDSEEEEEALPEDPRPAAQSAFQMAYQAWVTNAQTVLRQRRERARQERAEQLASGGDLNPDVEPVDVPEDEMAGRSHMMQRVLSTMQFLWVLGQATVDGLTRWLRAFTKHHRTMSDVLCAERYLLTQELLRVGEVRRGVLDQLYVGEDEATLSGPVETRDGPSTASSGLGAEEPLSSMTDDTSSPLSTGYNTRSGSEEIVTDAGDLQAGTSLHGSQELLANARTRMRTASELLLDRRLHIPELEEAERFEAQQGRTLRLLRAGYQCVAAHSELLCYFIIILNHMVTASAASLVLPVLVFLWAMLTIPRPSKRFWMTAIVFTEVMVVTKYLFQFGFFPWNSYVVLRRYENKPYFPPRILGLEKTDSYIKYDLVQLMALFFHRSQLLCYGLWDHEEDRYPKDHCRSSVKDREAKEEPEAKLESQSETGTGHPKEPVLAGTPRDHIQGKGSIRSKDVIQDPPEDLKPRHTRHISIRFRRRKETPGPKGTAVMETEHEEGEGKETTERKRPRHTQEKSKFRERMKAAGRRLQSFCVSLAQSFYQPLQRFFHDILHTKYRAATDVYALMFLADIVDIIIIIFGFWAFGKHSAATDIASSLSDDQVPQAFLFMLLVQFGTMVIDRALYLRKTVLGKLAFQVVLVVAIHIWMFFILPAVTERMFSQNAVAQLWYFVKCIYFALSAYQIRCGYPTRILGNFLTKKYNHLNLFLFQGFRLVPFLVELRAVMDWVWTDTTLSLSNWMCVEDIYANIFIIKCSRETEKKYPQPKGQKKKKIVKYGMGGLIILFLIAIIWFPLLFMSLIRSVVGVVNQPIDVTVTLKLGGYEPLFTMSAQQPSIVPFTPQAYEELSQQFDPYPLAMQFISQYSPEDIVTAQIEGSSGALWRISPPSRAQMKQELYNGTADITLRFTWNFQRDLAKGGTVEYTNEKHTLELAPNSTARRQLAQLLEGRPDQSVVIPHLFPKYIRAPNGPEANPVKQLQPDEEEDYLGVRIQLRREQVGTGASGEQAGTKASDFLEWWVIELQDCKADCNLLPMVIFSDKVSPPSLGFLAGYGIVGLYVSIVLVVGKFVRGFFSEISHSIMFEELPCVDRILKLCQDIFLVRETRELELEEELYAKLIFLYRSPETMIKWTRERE

| SMILES | Ptgs2 expression compared with positive control Yoda1 ([1]; MLO-Y4 cells) | Ptgs2 expression compared with vehicle ([1]; MLO-Y4 cells) | Tnfrsf11b expression compared with vehicle ([1]; MLO-Y4 cells) | Wnt1 expression compared with positive control Yoda1 ([1]; MLO-Y4 cells) | Wnt1 expression compared with vehicle ([1]; MLO-Y4 cells) | calcium influx compared with Yoda1 ([2]; MLO-Y4 cells, 10 μM) | intracellular calcium concentration compared with Yoda1 ([2]; MLO-Y4 cells, at 2 μM, 5 μM, and 10 μM) | intracellular calcium concentration, dose dependence ([2]; MLO-Y4 cells, different doses) | calcium influx / increase of intracellular calcium in Piezo1 knock-down cells ([2]; 10 μM) | ATP production [3] | changes in gene expression (Ptgs2, Wnt1, Tnfrsf11b) after silencing of Piezo1 ([1]; Piezo1 knock-down MLO-Y4 cells) | increase of Ptgs2 after silencing Yap1 and Taz [1, 4] | increase of Tnfrsf11b after silencing Yap1 and Taz [1, 4] | increase of Wnt1 after silencing Yap1 and Taz [1, 4] | intracellular calcium concentration ([2]; MLO-Y4 cells, 10 μM, vs DMSO) |
| --- | --- | --- | --- | --- | --- | --- | --- | --- | --- | --- | --- | --- | --- | --- | --- |
| Fc1ccc(Cl)c(CSc2nnc(-c3cnccn3)s2)c1Cl [YW-3-170] | higher Ptgs2 expression than the positive control | higher Ptgs2 expression | higher Tnfrsf11b expression | higher Wnt1 expression than the positive control | higher Wnt1 expression | much more calcium influx than Yoda1 | higher intracellular calcium concentration than Yoda1 | dose-dependently | completely blocked; also recorded: loss of their ability to stimulate calcium influx | increased ATP production in MLO-Y4 cells in a dose-dependent manner |  |  |  |  |  |
| Clc1cccc(Cl)c1CSc1nnc(-c2cnccn2)s1 [Yoda1] |  | stimulated expression; also recorded: higher Ptgs2 expression | stimulated expression; also recorded: higher Tnfrsf11b expression |  | stimulated expression; also recorded: higher Wnt1 expression |  |  |  | completely prevented; also recorded: completely blocked | increased ATP production in MLO-Y4 cells in a dose-dependent manner | completely prevented | significantly blunted | significantly blunted | significantly blunted | increased |
